Results as given in patent publication US9340590B2 (priority 2011, dated 2016).
Positions of bridges follow the written chain, without caps; N, C: chain ends. Residues, ends and D or L forms follow the SMILES beside them.

Assays:
Test in all cases: cell-based
[1] = molecular target: hNav1.7 (Homo sapiens, UniProt Q15858); format: cell-based; conditions: IonWorks Quattro, use-dependent block, hNav1.7; read-out: IWQ Use Nav1.7
[2] = molecular target: hNav1.5 (Homo sapiens, UniProt Q14524); conditions: IonWorks Quattro, use-dependent block, hNav1.5; read-out: IWQ Use Nav1.5
Chain of hNav1.5 (Q14524 whole entry, looked up): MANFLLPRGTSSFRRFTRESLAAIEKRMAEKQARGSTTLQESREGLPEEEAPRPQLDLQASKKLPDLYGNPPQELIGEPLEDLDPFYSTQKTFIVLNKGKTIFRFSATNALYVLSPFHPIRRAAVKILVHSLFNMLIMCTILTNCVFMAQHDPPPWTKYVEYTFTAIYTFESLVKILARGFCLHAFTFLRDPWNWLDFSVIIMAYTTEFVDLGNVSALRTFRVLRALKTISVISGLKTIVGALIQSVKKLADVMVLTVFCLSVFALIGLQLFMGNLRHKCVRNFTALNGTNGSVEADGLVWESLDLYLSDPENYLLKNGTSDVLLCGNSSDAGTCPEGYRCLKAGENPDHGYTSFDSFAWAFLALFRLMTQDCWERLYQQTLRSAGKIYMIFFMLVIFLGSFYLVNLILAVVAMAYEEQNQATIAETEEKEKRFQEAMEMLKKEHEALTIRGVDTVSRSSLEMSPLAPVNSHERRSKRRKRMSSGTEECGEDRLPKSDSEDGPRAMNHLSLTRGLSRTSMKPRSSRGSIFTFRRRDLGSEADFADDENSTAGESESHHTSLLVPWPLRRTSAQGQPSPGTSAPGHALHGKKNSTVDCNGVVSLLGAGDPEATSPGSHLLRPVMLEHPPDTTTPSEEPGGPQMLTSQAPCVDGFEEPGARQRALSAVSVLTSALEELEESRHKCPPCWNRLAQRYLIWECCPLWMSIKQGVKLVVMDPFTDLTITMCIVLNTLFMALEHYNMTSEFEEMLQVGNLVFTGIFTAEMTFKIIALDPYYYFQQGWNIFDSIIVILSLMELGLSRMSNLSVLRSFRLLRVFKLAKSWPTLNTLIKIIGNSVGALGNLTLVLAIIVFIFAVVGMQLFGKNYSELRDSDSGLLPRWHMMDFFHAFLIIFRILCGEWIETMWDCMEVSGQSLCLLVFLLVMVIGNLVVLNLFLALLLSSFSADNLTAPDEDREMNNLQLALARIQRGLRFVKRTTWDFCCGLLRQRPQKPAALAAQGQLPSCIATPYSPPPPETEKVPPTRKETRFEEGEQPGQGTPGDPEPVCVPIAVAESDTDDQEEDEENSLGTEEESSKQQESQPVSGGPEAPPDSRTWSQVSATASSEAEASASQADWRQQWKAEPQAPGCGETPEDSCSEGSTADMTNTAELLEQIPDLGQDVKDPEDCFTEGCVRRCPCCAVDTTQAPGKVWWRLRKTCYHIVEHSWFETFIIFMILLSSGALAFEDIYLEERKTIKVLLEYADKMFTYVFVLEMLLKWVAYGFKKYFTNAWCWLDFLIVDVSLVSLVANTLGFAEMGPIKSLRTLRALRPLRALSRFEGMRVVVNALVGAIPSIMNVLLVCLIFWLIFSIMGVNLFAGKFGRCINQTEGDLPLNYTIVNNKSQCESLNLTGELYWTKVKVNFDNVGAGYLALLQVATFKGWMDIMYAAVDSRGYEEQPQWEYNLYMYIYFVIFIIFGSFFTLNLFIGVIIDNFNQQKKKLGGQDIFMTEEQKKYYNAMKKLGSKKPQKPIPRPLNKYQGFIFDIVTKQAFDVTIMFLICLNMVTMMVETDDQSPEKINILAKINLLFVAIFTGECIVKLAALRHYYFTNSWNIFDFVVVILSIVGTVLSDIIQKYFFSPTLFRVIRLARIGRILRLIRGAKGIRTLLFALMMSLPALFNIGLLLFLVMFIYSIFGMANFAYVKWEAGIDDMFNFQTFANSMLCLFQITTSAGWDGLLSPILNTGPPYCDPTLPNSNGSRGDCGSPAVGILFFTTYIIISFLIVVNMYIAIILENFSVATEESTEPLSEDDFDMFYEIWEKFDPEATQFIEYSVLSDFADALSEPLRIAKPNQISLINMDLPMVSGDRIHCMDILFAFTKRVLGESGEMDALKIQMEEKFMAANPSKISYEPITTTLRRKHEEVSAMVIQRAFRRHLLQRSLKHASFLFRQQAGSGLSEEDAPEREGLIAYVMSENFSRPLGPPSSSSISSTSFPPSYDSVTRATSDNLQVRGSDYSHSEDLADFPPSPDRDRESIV

[3] = molecular target: hNav1.3 (Homo sapiens, UniProt Q9NY46); conditions: IonWorks Quattro, use-dependent block, hNav1.3; read-out: IWQ Use Nav1.3

Chain of hNav1.7 (Q15858 whole entry, looked up): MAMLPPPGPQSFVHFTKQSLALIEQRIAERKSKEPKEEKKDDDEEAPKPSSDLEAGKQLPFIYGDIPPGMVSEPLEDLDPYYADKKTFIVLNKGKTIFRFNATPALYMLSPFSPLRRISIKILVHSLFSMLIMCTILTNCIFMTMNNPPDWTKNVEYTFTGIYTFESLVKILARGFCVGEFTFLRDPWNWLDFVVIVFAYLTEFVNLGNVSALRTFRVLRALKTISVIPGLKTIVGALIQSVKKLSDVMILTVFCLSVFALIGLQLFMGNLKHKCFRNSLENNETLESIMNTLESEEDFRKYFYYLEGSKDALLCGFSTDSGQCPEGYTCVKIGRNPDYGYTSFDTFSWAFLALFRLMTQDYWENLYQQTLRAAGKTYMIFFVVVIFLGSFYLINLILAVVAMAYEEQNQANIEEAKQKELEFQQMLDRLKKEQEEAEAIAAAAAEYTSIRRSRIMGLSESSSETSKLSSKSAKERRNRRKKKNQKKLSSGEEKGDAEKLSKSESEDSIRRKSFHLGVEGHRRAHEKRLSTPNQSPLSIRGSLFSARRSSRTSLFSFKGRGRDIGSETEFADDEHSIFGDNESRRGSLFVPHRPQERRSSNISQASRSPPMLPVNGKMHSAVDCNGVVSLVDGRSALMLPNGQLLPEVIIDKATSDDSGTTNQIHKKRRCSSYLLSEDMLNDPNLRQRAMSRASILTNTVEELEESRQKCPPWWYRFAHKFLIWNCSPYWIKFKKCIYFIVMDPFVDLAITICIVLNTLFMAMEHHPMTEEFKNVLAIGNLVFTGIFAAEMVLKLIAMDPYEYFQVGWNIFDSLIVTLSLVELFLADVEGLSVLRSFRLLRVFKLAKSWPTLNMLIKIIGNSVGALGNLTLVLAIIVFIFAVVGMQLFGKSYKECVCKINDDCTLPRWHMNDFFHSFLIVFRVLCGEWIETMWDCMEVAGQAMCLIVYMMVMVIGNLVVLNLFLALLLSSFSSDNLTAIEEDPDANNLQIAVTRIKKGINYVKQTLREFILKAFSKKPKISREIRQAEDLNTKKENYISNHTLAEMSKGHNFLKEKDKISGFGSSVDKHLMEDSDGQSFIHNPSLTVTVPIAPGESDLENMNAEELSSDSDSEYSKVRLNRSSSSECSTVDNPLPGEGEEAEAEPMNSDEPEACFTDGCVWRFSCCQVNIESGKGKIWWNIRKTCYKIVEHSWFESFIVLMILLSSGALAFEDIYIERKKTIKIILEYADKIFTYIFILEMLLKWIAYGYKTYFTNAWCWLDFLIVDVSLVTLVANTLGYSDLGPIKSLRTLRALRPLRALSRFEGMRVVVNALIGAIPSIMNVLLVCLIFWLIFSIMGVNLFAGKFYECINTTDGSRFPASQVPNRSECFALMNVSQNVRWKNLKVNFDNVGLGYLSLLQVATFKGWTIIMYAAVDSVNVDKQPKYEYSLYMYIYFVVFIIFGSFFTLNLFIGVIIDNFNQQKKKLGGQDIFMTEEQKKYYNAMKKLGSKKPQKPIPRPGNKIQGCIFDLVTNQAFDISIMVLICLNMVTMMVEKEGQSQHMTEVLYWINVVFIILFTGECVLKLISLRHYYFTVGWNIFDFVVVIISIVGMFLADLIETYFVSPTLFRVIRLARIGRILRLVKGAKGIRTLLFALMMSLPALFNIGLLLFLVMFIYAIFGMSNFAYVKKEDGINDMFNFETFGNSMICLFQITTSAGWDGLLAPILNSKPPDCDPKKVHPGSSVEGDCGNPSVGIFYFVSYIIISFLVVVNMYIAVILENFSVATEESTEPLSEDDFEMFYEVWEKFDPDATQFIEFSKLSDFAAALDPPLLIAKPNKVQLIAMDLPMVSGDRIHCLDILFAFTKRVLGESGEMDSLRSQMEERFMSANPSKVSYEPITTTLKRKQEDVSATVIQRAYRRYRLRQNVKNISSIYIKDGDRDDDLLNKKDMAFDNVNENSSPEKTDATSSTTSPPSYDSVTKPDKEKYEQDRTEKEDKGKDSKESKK

With `CC[C@H](C)[C@@H]1NC(=O)[C@@H]2CSSC[C@@H]3NC(=O)[C@H](C(C)C)NC(=O)[C@H](CC(C)C)NC(=O)[C@H](CC(N)=O)NC(=O)[C@@H]4CCCN4C(=O)[C@H](CCCNC(=N)N)NC(=O)[C@H](CSSC[C@H](NC(=O)[C@@H](N)CC(=O)O)C(=O)N[C@@H](CC(C)C)C(=O)NCC(=O)N[C@@H](C)C(=O)N[C@@H](CC(C)C)C(=O)N[C@@H](CCCNC(=N)N)C(=O)N[C@@H](CCCCN)C(=O)N2)NC(=O)[C@H](CSSC[C@@H](C(=O)N[C@@H](CCCCN)C(=O)N[C@@H](Cc2ccc(O)cc2)C(=O)N[C@H](C(=O)N[C@@H](Cc2ccccc2)C(=O)O)C(C)C)NC(=O)[C@H](Cc2c[nH]c4ccccc24)NC(=O)[C@H](CC(=O)O)NC(=O)[C@H](Cc2c[nH]cn2)NC(=O)[C@H]([C@@H](C)O)NC(=O)[C@H](CCCNC(=N)N)NC(=O)[C@H](CO)NC3=O)NC(=O)[C@H](CCCCN)NC(=O)[C@H](CC(=O)O)NC(=O)[C@H](CC(N)=O)NC(=O)[C@H](CC(=O)O)NC(=O)[C@@H]2CCCN2C1=O` [compound 854] (H-DCLGALRKCIPDNDKCCRPNLVCSRTHDWCKYVF-OH; disulfide 2-17, 9-23, 16-30) the IC50 [1] was > 5 µM, the IC50 [2] was > 5 µM and the IC50 [3] was > 5 µM.

`CC[C@H](C)[C@@H]1NC(=O)[C@@H]2CSSC[C@@H]3NC(=O)[C@H](C(C)C)NC(=O)[C@H](CC(C)C)NC(=O)[C@H](CC(N)=O)NC(=O)[C@@H]4CCCN4C(=O)[C@H](CCCNC(=N)N)NC(=O)[C@H](CSSC[C@H](NC(=O)[C@@H](N)CC(=O)O)C(=O)N[C@@H](CC(C)C)C(=O)NCC(=O)N[C@@H](C)C(=O)N[C@@H](CC(C)C)C(=O)N[C@@H](CCCNC(=N)N)C(=O)N[C@@H](CCCCN)C(=O)N2)NC(=O)[C@H](CSSC[C@@H](C(=O)N[C@@H](CCCCN)C(=O)N[C@@H](Cc2ccc(O)cc2)C(=O)N[C@H](C(=O)N[C@@H](Cc2ccccc2)C(=O)O)C(C)C)NC(=O)[C@H](Cc2c[nH]c4ccccc24)NC(=O)[C@H](CCC(=O)O)NC(=O)[C@H](Cc2c[nH]cn2)NC(=O)[C@H]([C@@H](C)O)NC(=O)[C@H](CCCNC(=N)N)NC(=O)[C@H](CO)NC3=O)NC(=O)[C@H](CCCCN)NC(=O)[C@H](CC(=O)O)NC(=O)[C@H](CC(N)=O)NC(=O)[C@H](CC(=O)O)NC(=O)[C@@H]2CCCN2C1=O` [compound 855] was tested, and the IC50 [1] was > 5 µM, the IC50 [2] was > 5 µM and the IC50 [3] was > 5 µM.

In the case of `CC[C@H](C)[C@@H]1NC(=O)[C@@H]2CSSC[C@@H]3NC(=O)[C@H](C(C)C)NC(=O)[C@H](CC(C)C)NC(=O)[C@H](CC(N)=O)NC(=O)[C@@H]4CCCN4C(=O)[C@H](CCCNC(=N)N)NC(=O)[C@H](CSSC[C@H](NC(=O)[C@@H](N)CC(=O)O)C(=O)N[C@@H](CC(C)C)C(=O)NCC(=O)N[C@@H](C)C(=O)N[C@@H](CC(C)C)C(=O)N[C@@H](CCCNC(=N)N)C(=O)N[C@@H](CCCCN)C(=O)N2)NC(=O)[C@H](CSSC[C@@H](C(=O)N[C@@H](CCCCN)C(=O)N[C@@H](Cc2ccc(O)cc2)C(=O)N[C@H](C(=O)N[C@@H](Cc2ccccc2)C(=O)O)C(C)C)NC(=O)[C@H](Cc2c[nH]c4ccccc24)NC(=O)[C@H](CC(C)C)NC(=O)[C@H](Cc2c[nH]cn2)NC(=O)[C@H]([C@@H](C)O)NC(=O)[C@H](CCCNC(=N)N)NC(=O)[C@H](CO)NC3=O)NC(=O)[C@H](CCCCN)NC(=O)[C@H](CC(=O)O)NC(=O)[C@H](CC(N)=O)NC(=O)[C@H](CC(=O)O)NC(=O)[C@@H]2CCCN2C1=O` [compound 856] (H-DCLGALRKCIPDNDKCCRPNLVCSRTHLWCKYVF-OH; disulfide 2-17, 9-23, 16-30), the IC50 [1] is reported as 4.1 µM, the IC50 [2] is reported as > 5 µM and the IC50 [3] is reported as 4.1 µM.

In the case of `CC[C@H](C)[C@@H]1NC(=O)[C@@H]2CSSC[C@@H]3NC(=O)[C@H](C(C)C)NC(=O)[C@H](CC(C)C)NC(=O)[C@H](CC(N)=O)NC(=O)[C@@H]4CCCN4C(=O)[C@H](CCCNC(=N)N)NC(=O)[C@H](CSSC[C@H](NC(=O)[C@@H](N)CC(=O)O)C(=O)N[C@@H](CC(C)C)C(=O)NCC(=O)N[C@@H](C)C(=O)N[C@@H](CC(C)C)C(=O)N[C@@H](CCCNC(=N)N)C(=O)N[C@@H](CCCCN)C(=O)N2)NC(=O)[C@H](CSSC[C@@H](C(=O)N[C@@H](CCCCN)C(=O)N[C@@H](Cc2ccc(O)cc2)C(=O)N[C@H](C(=O)N[C@@H](Cc2ccccc2)C(=O)O)C(C)C)NC(=O)[C@H](Cc2c[nH]c4ccccc24)NC(=O)[C@H](CCSC)NC(=O)[C@H](Cc2c[nH]cn2)NC(=O)[C@H]([C@@H](C)O)NC(=O)[C@H](CCCNC(=N)N)NC(=O)[C@H](CO)NC3=O)NC(=O)[C@H](CCCCN)NC(=O)[C@H](CC(=O)O)NC(=O)[C@H](CC(N)=O)NC(=O)[C@H](CC(=O)O)NC(=O)[C@@H]2CCCN2C1=O` [compound 857] (H-DCLGALRKCIPDNDKCCRPNLVCSRTHMWCKYVF-OH; disulfide 2-17, 9-23, 16-30), the IC50 [1] is reported as > 5 µM, the IC50 [2] is reported as > 5 µM and the IC50 [3] is reported as > 5 µM.

In the case of `CC[C@H](C)[C@@H]1NC(=O)[C@@H]2CSSC[C@@H]3NC(=O)[C@H](C(C)C)NC(=O)[C@H](CC(C)C)NC(=O)[C@H](CC(N)=O)NC(=O)[C@@H]4CCCN4C(=O)[C@H](CCCNC(=N)N)NC(=O)[C@H](CSSC[C@H](NC(=O)[C@@H](N)CC(=O)O)C(=O)N[C@@H](CC(C)C)C(=O)NCC(=O)N[C@@H](C)C(=O)N[C@@H](CC(C)C)C(=O)N[C@@H](CCCNC(=N)N)C(=O)N[C@@H](CCCCN)C(=O)N2)NC(=O)[C@H](CSSC[C@@H](C(=O)N[C@@H](CCCCN)C(=O)N[C@@H](Cc2ccc(O)cc2)C(=O)N[C@H](C(=O)N[C@@H](Cc2ccccc2)C(=O)O)C(C)C)NC(=O)[C@H](Cc2c[nH]c4ccccc24)NC(=O)[C@H](CCC(N)=O)NC(=O)[C@H](Cc2c[nH]cn2)NC(=O)[C@H]([C@@H](C)O)NC(=O)[C@H](CCCNC(=N)N)NC(=O)[C@H](CO)NC3=O)NC(=O)[C@H](CCCCN)NC(=O)[C@H](CC(=O)O)NC(=O)[C@H](CC(N)=O)NC(=O)[C@H](CC(=O)O)NC(=O)[C@@H]2CCCN2C1=O` [compound 858] (H-DCLGALRKCIPDNDKCCRPNLVCSRTHQWCKYVF-OH; disulfide 2-17, 9-23, 16-30), the IC50 [1] is reported as > 5 µM, the IC50 [2] is reported as > 5 µM and the IC50 [3] is reported as > 5 µM.

In the case of `CC[C@H](C)[C@@H]1NC(=O)[C@@H]2CSSC[C@@H]3NC(=O)[C@H](C(C)C)NC(=O)[C@H](CC(C)C)NC(=O)[C@H](CC(N)=O)NC(=O)[C@@H]4CCCN4C(=O)[C@H](CCCNC(=N)N)NC(=O)[C@H](CSSC[C@H](NC(=O)[C@@H](N)CC(=O)O)C(=O)N[C@@H](CC(C)C)C(=O)NCC(=O)N[C@@H](C)C(=O)N[C@@H](CC(C)C)C(=O)N[C@@H](CCCNC(=N)N)C(=O)N[C@@H](CCCCN)C(=O)N2)NC(=O)[C@H](CSSC[C@@H](C(=O)N[C@@H](CCCCN)C(=O)N[C@@H](Cc2ccc(O)cc2)C(=O)N[C@H](C(=O)N[C@@H](Cc2ccccc2)C(=O)O)C(C)C)NC(=O)[C@H](Cc2c[nH]c4ccccc24)NC(=O)[C@H](CO)NC(=O)[C@H](Cc2c[nH]cn2)NC(=O)[C@H]([C@@H](C)O)NC(=O)[C@H](CCCNC(=N)N)NC(=O)[C@H](CO)NC3=O)NC(=O)[C@H](CCCCN)NC(=O)[C@H](CC(=O)O)NC(=O)[C@H](CC(N)=O)NC(=O)[C@H](CC(=O)O)NC(=O)[C@@H]2CCCN2C1=O` [compound 859] (H-DCLGALRKCIPDNDKCCRPNLVCSRTHSWCKYVF-OH; disulfide 2-17, 9-23, 16-30), the IC50 [1] is reported as > 5 µM, the IC50 [2] is reported as > 5 µM and the IC50 [3] is reported as > 5 µM.

In the case of `CC[C@H](C)[C@@H]1NC(=O)[C@@H]2CSSC[C@@H]3NC(=O)[C@H](C(C)C)NC(=O)[C@H](CC(C)C)NC(=O)[C@H](CC(N)=O)NC(=O)[C@@H]4CCCN4C(=O)[C@H](CCCNC(=N)N)NC(=O)[C@H](CSSC[C@H](NC(=O)[C@@H](N)CC(=O)O)C(=O)N[C@@H](CC(C)C)C(=O)NCC(=O)N[C@@H](C)C(=O)N[C@@H](CC(C)C)C(=O)N[C@@H](CCCNC(=N)N)C(=O)N[C@@H](CCCCN)C(=O)N2)NC(=O)[C@H](CSSC[C@@H](C(=O)N[C@@H](CCCCN)C(=O)N[C@@H](Cc2ccc(O)cc2)C(=O)N[C@H](C(=O)N[C@@H](Cc2ccccc2)C(=O)O)C(C)C)NC(=O)[C@H](Cc2c[nH]c4ccccc24)NC(=O)[C@H](CCCNC(=N)N)NC(=O)[C@H](Cc2c[nH]cn2)NC(=O)[C@H]([C@@H](C)O)NC(=O)[C@H](CCCNC(=N)N)NC(=O)[C@H](CO)NC3=O)NC(=O)[C@H](CCCCN)NC(=O)[C@H](CC(=O)O)NC(=O)[C@H](C)NC(=O)[C@H](CC(=O)O)NC(=O)[C@@H]2CCCN2C1=O` [compound 860] (H-DCLGALRKCIPDADKCCRPNLVCSRTHRWCKYVF-OH; disulfide 2-17, 9-23, 16-30), the IC50 [1] is reported as > 5 µM, the IC50 [2] is reported as > 5 µM and the IC50 [3] is reported as 4.5 µM.

In the case of `CC[C@H](C)[C@@H]1NC(=O)[C@@H]2CSSC[C@@H]3NC(=O)[C@H](C(C)C)NC(=O)[C@H](CC(C)C)NC(=O)[C@H](CC(N)=O)NC(=O)[C@@H]4CCCN4C(=O)[C@H](CCCNC(=N)N)NC(=O)[C@H](CSSC[C@H](NC(=O)[C@@H](N)CC(=O)O)C(=O)N[C@@H](CC(C)C)C(=O)NCC(=O)N[C@@H](C)C(=O)N[C@@H](CC(C)C)C(=O)N[C@@H](CCCNC(=N)N)C(=O)N[C@@H](CCCCN)C(=O)N2)NC(=O)[C@H](CSSC[C@@H](C(=O)N[C@@H](CCCCN)C(=O)N[C@@H](Cc2ccc(O)cc2)C(=O)N[C@H](C(=O)N[C@@H](Cc2ccccc2)C(=O)O)C(C)C)NC(=O)[C@H](Cc2c[nH]c4ccccc24)NC(=O)[C@H](CCCNC(=N)N)NC(=O)[C@H](Cc2c[nH]cn2)NC(=O)[C@H]([C@@H](C)O)NC(=O)[C@H](CCCNC(=N)N)NC(=O)[C@H](CO)NC3=O)NC(=O)[C@H](CCCCN)NC(=O)[C@H](CC(=O)O)NC(=O)[C@H](CC(=O)O)NC(=O)[C@H](CC(=O)O)NC(=O)[C@@H]2CCCN2C1=O` [compound 861] (H-DCLGALRKCIPDDDKCCRPNLVCSRTHRWCKYVF-OH; disulfide 2-17, 9-23, 16-30), the IC50 [1] is reported as > 5 µM, the IC50 [2] is reported as > 5 µM and the IC50 [3] is reported as > 5 µM.
